Consider 7 compounds from US10745400B2, “Inhibition of BMP signaling, compounds, compositions and uses thereof” (Vanderbilt University, priority 2018, dated 2020).

Series [1] concerns the target T1, ALK2 (Q207D) (Homo sapiens, UniProt Q04771, Q207D).
T1 sequence (Q04771 21-509 Q207D): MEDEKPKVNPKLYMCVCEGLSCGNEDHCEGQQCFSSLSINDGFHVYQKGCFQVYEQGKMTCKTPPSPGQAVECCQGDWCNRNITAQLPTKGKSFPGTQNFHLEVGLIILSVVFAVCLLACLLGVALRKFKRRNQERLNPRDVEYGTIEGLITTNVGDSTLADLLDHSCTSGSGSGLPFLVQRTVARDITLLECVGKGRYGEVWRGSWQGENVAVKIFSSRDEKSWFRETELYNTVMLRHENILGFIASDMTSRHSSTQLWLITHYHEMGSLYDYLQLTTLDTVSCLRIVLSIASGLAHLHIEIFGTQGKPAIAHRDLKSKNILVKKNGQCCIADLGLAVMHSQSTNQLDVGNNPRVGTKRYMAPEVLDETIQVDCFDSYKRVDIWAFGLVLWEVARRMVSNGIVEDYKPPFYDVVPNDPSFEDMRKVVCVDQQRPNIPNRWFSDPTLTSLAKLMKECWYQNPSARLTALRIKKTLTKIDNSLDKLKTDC
Kind of series: Kinase assay (33P-ATP filter-binding), ALK2 Q207D. The series is classed as biochemical. Particulars: Q207D mutant, 20 mM; read-out: Kinase Selectivity ALK2 (Q207D, 20 mM). The essentials: (§1)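 Activity was read by spotting reactions onto P81 ion exchange paper (filter binding) after 2 hours at room temperature with 33P-ATP. Kinase and substrate sat in Hepes pH 7.5 buffer with MgCl2, EGTA, Brij35, BSA, Na3VO4, DTT and 1% DMSO; compound was added 20 minutes before ATP.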

The nature of series [2]: Protein binding, human. The format is in vitro ADME.
Series [3] has as its target T2, ALK4 (Homo sapiens, UniProt P36896).
T2 sequence (P36896 24-505): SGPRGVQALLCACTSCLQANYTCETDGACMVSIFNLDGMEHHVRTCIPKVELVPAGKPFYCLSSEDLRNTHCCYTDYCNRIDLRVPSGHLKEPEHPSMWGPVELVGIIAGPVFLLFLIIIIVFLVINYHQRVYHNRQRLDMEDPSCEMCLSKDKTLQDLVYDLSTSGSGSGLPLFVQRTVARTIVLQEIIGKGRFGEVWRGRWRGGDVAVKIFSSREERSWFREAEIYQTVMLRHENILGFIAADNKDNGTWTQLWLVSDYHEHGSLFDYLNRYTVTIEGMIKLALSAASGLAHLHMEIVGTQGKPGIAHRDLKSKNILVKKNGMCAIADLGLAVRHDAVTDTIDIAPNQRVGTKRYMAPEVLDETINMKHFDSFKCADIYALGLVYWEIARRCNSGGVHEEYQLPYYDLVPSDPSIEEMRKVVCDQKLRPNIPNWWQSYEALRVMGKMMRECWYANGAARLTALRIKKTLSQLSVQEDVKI
Kind of series: Kinase assay (33P-ATP filter-binding), ALK4. The series is classed as biochemical. Particulars: read-out: Kinase Selectivity ALK4. How it is done: (§2) The kinase assays were carried out briefly as follows. Substrate was prepared in Base Reaction Buffer (20 mM Hepes (pH 7.5), 10 mM MgCl2, 1 mM EGTA, 0.02% Brij35, 0.02 mg/ml BSA, 0.1 mM Na3VO4, 2 mM DTT, 1% DMSO). The indicated kinases was delivered into the substrate solution and allowed to gently mix. Next, the specific compound was delivered in DMSO into the kinase mixture by Acoustic technology (Echo550; nanoliter range), and allowed to incubate for 20 minutes at room temperature. Next, ^33P-ATP was delivered into the reaction mixture to initiate the reaction and allowed to incubate at room temperature. After 2 hours, the reactions were spotted onto P81 ion exchange paper and the kinase activity is detected by the filter-binding method.

The target of series [4] is ALK6 (Homo sapiens, UniProt O00238). The experiment in a line: Kinase assay (33P-ATP filter-binding), ALK6. The following applies: read-out: Kinase Selectivity ALK6. The format is biochemical. How it is done: as §2
Series [5] addresses ALK3/BMPR1A (Homo sapiens, UniProt P36894). Kind of series: Kinase assay (33P-ATP filter-binding), ALK3. The format is biochemical. The following applies: 1 mM; read-out: Kinase Selectivity ALK3/BMPR1A (1 mM). The essentials:
as §1

For series [6], the target named is T3, ALK2/ACVR1 (Homo sapiens, UniProt Q04771).
T3 sequence (Q04771 21-509): T1 sequence (Q04771 21-509 Q207D) with D187Q
The experiment in a line: Kinase assay (33P-ATP filter-binding), ALK2. The series is classed as biochemical. Particulars: 20 mM; read-out: Kinase Selectivity ALK2/ACVR1 (20 mM). The essentials:
as §1

Series [7] is described as follows: Intrinsic clearance, mouse. Particulars: mouse. The format is in vitro ADME.
For series [8], the target named is AMPK. The experiment in a line: Kinase assay (33P-ATP filter-binding), AMPK. Particulars: read-out: Kinase Selectivity AMPK. The series is classed as biochemical. How it is done:
as §2

The target in series [9] is KDR (Homo sapiens, UniProt P35968). The experiment in a line: Kinase assay (33P-ATP filter-binding), KDR. The series is classed as biochemical. Particulars: read-out: Kinase Selectivity KDR. The method, then: as §2
Series [10] concerns the target ALK1/ACVRL1 (Homo sapiens, UniProt P37023). The experiment in a line: Kinase assay (33P-ATP filter-binding), ALK1. The series is classed as biochemical. The following applies: read-out: Kinase Selectivity ALK1/ACVRL1. The essentials: as §1
Series [11] has as its target PDGFRb (Homo sapiens, UniProt P09619). Kind of series: Kinase assay (33P-ATP filter-binding), PDGFRb. The series is classed as biochemical. The following applies: read-out: Kinase Selectivity PDGFRb. The method, then:
as §2

Series [12] has as its system BMP-responsive C2C12 mouse myoblast cells stimulated with BMP4. The experiment in a line: BMP4 cell assay (Id1 promoter-firefly luciferase reporter). Particulars: Mus musculus; C2C12 cells, BMP4 50 ng/mL, overnight. The series is classed as cell-based.
For series [13], the target named is TGFbR2 (Homo sapiens, UniProt P37173). The experiment in a line: Kinase assay (33P-ATP filter-binding), TGFbR2. The series is classed as biochemical. Particulars: read-out: Kinase Selectivity TGFbR2. How it is done:
as §2

Where [14] appears, read: CL-Hep, value in parentheses, read-out: Intrinsic Clearance Mouse (CL-Hep).
[15] abbreviates: read-out: Intrinsic Clearance Mouse.

Substitutions are numbered along the chain they refer to. Where two headings read alike, the source gives them in different places. Bounds are passed on as bounds.

TGFbR2, sequence (P37173 23-567, species assumed): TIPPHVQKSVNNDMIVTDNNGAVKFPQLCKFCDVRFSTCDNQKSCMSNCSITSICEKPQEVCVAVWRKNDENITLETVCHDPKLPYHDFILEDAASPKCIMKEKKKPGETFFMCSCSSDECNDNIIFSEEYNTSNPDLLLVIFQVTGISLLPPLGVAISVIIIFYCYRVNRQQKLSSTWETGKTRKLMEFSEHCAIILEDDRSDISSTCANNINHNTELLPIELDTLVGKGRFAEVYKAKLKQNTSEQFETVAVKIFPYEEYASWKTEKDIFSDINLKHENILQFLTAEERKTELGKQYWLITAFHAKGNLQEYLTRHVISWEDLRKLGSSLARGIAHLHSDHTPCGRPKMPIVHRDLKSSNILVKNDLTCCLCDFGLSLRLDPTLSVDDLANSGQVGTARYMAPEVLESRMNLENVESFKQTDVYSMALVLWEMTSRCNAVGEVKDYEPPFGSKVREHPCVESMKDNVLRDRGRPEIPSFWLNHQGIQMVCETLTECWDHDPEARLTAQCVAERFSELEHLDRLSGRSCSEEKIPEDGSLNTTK
ALK6, sequence (O00238 14-502): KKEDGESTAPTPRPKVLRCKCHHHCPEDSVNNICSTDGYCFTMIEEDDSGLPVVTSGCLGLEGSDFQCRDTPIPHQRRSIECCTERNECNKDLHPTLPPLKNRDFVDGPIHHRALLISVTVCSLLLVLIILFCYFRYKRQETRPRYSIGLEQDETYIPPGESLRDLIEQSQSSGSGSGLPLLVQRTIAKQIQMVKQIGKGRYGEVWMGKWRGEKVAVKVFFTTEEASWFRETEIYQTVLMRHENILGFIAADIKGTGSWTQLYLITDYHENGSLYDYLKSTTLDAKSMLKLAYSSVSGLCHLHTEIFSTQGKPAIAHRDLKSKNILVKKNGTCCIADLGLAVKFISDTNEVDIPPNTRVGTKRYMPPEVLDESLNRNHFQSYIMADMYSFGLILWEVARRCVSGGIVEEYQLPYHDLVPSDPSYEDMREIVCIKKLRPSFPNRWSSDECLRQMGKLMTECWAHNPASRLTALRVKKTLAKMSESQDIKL
ALK1/ACVRL1, sequence (P37023 22-503): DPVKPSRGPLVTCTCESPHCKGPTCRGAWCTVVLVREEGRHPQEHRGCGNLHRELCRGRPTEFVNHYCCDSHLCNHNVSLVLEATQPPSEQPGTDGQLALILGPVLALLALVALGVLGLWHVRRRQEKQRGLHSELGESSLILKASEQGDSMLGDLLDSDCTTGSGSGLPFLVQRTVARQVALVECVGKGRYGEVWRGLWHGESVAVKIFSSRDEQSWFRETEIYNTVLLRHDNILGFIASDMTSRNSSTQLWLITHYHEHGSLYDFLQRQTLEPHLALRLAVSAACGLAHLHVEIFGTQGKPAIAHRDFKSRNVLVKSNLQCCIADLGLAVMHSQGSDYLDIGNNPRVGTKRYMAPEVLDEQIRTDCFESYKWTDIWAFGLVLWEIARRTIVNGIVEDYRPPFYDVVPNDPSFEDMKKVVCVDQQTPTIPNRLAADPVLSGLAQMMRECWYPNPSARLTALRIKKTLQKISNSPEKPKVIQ
PDGFRb, sequence (P09619 33-1106, species assumed): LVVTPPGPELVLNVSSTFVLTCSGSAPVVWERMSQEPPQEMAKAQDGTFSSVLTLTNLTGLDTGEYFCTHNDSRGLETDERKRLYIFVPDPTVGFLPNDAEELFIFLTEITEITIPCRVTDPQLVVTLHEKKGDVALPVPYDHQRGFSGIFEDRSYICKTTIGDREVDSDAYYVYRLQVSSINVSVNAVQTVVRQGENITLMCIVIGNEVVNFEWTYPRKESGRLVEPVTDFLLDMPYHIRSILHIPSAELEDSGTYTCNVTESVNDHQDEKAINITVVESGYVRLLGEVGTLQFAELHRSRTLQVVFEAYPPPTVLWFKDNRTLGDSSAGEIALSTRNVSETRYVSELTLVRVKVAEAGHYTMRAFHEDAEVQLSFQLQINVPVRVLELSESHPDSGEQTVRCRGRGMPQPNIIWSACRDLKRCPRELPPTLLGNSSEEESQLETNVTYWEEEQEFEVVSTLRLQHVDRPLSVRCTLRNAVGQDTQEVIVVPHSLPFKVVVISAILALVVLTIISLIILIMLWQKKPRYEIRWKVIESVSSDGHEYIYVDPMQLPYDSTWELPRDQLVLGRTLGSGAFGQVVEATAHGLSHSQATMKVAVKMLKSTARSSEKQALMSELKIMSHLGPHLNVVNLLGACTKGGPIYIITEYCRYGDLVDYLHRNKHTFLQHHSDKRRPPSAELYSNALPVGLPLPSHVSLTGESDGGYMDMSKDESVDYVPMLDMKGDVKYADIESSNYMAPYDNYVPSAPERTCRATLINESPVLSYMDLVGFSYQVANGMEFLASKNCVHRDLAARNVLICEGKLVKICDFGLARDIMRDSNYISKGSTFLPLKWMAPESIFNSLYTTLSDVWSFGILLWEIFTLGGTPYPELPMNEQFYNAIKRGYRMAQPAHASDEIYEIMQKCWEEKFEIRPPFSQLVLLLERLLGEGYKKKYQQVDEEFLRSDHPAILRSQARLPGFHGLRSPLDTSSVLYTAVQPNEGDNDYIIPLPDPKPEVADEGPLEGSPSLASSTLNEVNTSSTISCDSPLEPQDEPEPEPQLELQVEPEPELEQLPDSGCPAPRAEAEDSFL
ALK3/BMPR1A, sequence (P36894 24-532): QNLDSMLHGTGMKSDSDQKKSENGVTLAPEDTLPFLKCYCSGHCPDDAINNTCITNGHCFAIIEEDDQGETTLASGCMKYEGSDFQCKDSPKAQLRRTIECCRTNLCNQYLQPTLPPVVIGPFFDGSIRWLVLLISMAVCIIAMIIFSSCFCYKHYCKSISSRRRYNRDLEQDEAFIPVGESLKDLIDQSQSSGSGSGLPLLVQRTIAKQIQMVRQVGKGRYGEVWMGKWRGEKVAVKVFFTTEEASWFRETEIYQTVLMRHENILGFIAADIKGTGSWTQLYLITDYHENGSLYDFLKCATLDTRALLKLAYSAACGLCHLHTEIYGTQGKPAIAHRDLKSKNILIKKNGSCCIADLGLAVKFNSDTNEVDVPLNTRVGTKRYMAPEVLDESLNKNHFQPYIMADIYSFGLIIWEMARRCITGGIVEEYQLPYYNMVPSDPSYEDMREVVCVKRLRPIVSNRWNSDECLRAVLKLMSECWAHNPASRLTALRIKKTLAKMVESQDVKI
KDR, sequence (P35968 20-1356, species assumed): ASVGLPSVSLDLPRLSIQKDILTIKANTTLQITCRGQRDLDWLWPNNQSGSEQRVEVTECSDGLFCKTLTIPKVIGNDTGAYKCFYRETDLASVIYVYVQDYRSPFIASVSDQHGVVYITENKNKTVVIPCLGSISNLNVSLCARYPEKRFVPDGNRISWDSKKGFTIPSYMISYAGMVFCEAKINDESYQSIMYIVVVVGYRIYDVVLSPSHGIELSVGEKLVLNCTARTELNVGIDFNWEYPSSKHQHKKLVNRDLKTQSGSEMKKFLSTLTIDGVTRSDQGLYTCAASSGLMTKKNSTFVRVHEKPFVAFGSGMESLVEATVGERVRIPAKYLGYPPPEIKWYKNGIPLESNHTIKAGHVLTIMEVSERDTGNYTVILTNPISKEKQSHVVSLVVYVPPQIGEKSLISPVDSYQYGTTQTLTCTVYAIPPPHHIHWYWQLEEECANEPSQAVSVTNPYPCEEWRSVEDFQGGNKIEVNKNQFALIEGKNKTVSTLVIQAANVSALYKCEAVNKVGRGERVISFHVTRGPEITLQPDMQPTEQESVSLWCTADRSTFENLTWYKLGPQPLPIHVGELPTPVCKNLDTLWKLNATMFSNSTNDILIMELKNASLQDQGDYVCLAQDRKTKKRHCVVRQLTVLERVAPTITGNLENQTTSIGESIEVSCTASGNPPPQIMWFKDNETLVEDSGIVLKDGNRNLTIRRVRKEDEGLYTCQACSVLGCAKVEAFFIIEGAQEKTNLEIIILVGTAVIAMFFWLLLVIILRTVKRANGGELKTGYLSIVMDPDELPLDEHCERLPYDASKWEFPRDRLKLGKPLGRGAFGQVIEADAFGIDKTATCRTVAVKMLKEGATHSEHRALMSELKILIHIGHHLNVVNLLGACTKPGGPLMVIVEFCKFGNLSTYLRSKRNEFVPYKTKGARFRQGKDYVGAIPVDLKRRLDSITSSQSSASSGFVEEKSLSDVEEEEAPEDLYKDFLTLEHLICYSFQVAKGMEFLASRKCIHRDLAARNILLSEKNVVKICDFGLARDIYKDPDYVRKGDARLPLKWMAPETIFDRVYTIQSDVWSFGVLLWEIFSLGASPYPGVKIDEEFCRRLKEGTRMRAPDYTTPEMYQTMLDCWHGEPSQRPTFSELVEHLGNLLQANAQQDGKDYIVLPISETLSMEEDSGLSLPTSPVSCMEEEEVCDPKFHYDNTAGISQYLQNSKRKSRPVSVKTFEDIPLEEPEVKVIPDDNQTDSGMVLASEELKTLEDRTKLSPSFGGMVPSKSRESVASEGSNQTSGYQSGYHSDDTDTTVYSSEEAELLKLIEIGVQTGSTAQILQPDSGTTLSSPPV

Regarding `Cc1cc(-c2cnc3cc(-c4ccc(C5COC6(CCNCC6)CN5)cc4)ccn23)c2cc(F)cc(F)c2n1` (stereo not shown) [Compound 16], the IC50 in [1] was 6.3 nM; in [3], 775 nM; in series [4] it was 188 nM; in series [5] it was less than 5.1 nM; in [6], less than 5.1 nM; in [8], 39100 nM. In addition, the IC50 in series [9] is 39300 nM; in [10], 152 nM; in series [11] it was 7700 nM; in series [12], 87.7 nM; in series [13], 620 nM. The “Protein Binding (% Free) Human” value in series [2] worked out at 5.61 % Free. In addition, the results for the CLint scaled in series [7] (setting [14]) and in series [7] (setting [15]) were less than 32.9 mL/min/kg and less than 49.5 mL/min/kg, respectively.
As to `Cc1cc(-c2cnc3cc(-c4ccc(C5COCC(C)N5)cc4)ccn23)c2cc(F)cc(F)c2n1` (stereo not shown) [Compound 23], the IC50 in series [1] is less than 5.1 nM; in series [3] it was 164 nM; in series [4] it was 369 nM; in [5], less than 5.1 nM; in [6], less than 5.1 nM; in [8], greater than 100000 nM. Moreover, the IC50 was found to be 47400 nM in [9], 42.8 nM in series [10], 7340 nM in series [11] and 560 nM in series [13]. The “Protein Binding (% Free) Human” value in series [2] is 1.11 % Free. Further, the CLint scaled in series [7] (setting [14]) was found to be 42.9 mL/min/kg; in [7] (setting [15]) it was 82.2 mL/min/kg.
As to `Cc1cc(-c2cnc3cc(-c4ccc(C5COC6(CCNC6)CN5)cc4)ccn23)c2cc(F)cc(F)c2n1` (stereo not shown) [Compound 27], the IC50 in series [1] came to 219 nM; in series [3] it was 2030 nM; in [4], 429 nM; in series [5], 13.5 nM; in series [6], 29.1 nM; in [8] it was 18900 nM. Moreover, the IC50 in [9] was greater than 100000 nM; in series [10] it was 907 nM; in series [11], 21700 nM; in series [12], 248 nM; in series [13] it was 1870 nM. The “Protein Binding (% Free) Human” value in series [2] is listed as 4.97 % Free. Also, the CLint scaled in [7] (setting [14]) was less than 32.9 mL/min/kg; in series [7] (setting [15]), less than 49.5 mL/min/kg.
As to `c1cnc2nccc(-c3cnc4cc(-c5ccc(C6CNCCN6)cc5)ccn34)c2c1` (stereo not shown) [Compound 32], the IC50 in series [1] was less than 5.1 nM; in [3], 192 nM; in series [4] it was 54.5 nM; in [5], less than 5.1 nM; in series [6], 16.5 nM; in series [8], 20000 nM. Further, the IC50 in [9] is 9350 nM; in series [10], 197 nM; in series [11], 2820 nM; in [12], 13.5 nM; in series [13], 4590 nM. Moreover, the “Protein Binding (% Free) Human” value in series [2] is 42.8 % Free. The values for the CLint scaled in series [7] (setting [14]) and in [7] (setting [15]) were less than 31.9 mL/min/kg and less than 49.5 mL/min/kg, respectively.
On to `c1cc(-c2cnc3cc(-c4ccc(C5CNCCN5)cc4)ccn23)c2cccnc2c1` (stereo not shown) [Compound 33], for which the IC50 was less than 5.1 nM in series [1]; 775 nM in series [3]; 188 nM in [4]; 82.7 nM in [5]; less than 5.1 nM in series [6]; 39100 nM in series [8]. For the same compound, the IC50 in [9] is 39300 nM; in series [10], 61.3 nM; in series [11] it was 7700 nM; in series [12], 87.7 nM; in series [13], 620 nM. Moreover, the “Protein Binding (% Free) Human” value in series [2] was determined as 11 % Free. Moreover, the CLint scaled in [7] (setting [14]) was less than 31.9 mL/min/kg; in series [7] (setting [15]), less than 49.5 mL/min/kg.
With `O=C1CNC(=O)C(c2ccc(-c3ccn4c(-c5cccc6ncccc56)cnc4c3)cc2)N1` (stereo not shown) [Compound 36], the IC50 in series [1] was less than 5.1 nM; in series [3], 390 nM; in series [4] it was 188 nM; in series [5], 295 nM; in series [6], less than 5.1 nM; in [8] it was 11500 nM. For the same compound, the IC50 in [9] turned out to be 36900 nM; in series [10], 84.9 nM; in [11] it was 6930 nM; in [12], 29.6 nM; in series [13], 498 nM.
For `NS(=O)(=O)c1ccc(-c2cnc3cc(-c4ccc(C5CNCCN5)cc4)ccn23)c2ccccc12` (stereo not shown) [Compound 37], the IC50 in series [1] came out at 5.8 nM; in series [3], 386 nM; in [4] it was 231 nM; in [5], 20300 nM; in [6], 14.6 nM; in series [8], 9320 nM. Further, the IC50 was 31400 nM in [9]; 723 nM in series [10]; 6490 nM in series [11]; 34.9 nM in [12]; 2680 nM in series [13]. The “Protein Binding (% Free) Human” value in series [2] was 11.7 % Free. Further, the CLint scaled is less than 31.9 mL/min/kg in series [7] (setting [14]) and less than 49.5 mL/min/kg in series [7] (setting [15]).
